Experimental data published in US10654828B2 (NOVARTIS AG, priority 2017, dated 2020).
Like-named read-outs stand apart in the source and are kept apart here.

What was measured:
FoxO3a = FoxO3a inhibition: GFP-FoxO3a nuclear to cytoplasmic translocation reporter assay; assay type: cell-based; conditions: U2OS GFP-FoxO3a H212R cells, serum starved overnight, compound 30 minutes, ratio of nuclear to cytosolic GFP intensity, DMSO control 0%, read-out: FoxO AC50
Description: (§1) Phosphorylation of AKT on S473 and FoxO3a nuclear to cytoplasmic translocation were used as readouts of PI3K/Akt/mTOR pathway activation downstream of growth factor signaling.
(§2) Reporter cell line. U2OS GFP-FoxO3a H212R reporter cell line was established by transducing U2OS cells with the retroviral plasmid pLEGFP-C1 containing FoxO3a H212R transgene and selecting for G418 resistant clones.
(§3) Reporter assay. U2OS GFP-FoxO3a H212R cells were plated in 384-well plates at 4000 cells per well in 30 microliters of McCoy's 5 A medium containing 10% FBS. On day 1 the cells were washed with serum free medium and serum starved overnight. On day 2 the cells were treated with different doses of the compounds for 30 minutes, fixed with 4% Paraformaldehyde for 1 hour and stained with Phospho-AKT (Ser473) antibody (Cell Signaling Technology, catalog #4060) overnight at 4 degrees Celsius. After nuclei staining with Hoechst 33342 (Life Technologies, catalog # H3570) the plates were imaged with InCell 2000 (GE Healthcare Bio-Sciences). FoxO3a inhibition activity is calculated as the ratio of nuclear to cytosolic GFP intensity in percent. AKT activation is measured as the total cellular intensity of Phospho-AKT antibody staining in percent. DMSO control is set as 0% activity.

AKT = AKT activation: Phospho-AKT (Ser473) antibody staining in reporter cells; assay type: cell-based; conditions: U2OS GFP-FoxO3a H212R cells, serum starved overnight, compound 30 minutes, total cellular intensity of Phospho-AKT (Ser473) staining, DMSO control 0%
Description: as §1, §2, §3

SMILES | AC50 (FoxO3a) [nM] | AC50 (AKT) [nM] | AC50 (FoxO3a; Homo sapiens, U2OS, 0.5 h) [nM] | AC50 (AKT; Homo sapiens, U2OS, 0.5 h) [nM]
Cc1cc(C(N)=O)nn1-c1ccc2c(ccn2Cc2ccc(NC3CCN(C)C3)cc2)c1 (single isomer, unassigned) [Example 37-2, 5-methyl-1-(1-(4-((1-methylpyrrolidin-3-yl)amino)benzyl)-1H-indol-5-yl)-1H-pyrazole-3-carboxamide] | 928 | 4080 | – | –
Cc1cc(C(N)=O)nn1-c1ccc2c(ccn2Cc2ccc(C3=C[C@H]4CNC[C@H]4C3)cc2)c1 (racemic) [Example 24, (cis)-1-(1-(4-(1,2,3,3a,4,6a-hexahydrocyclopenta[c]pyrrol-5-yl)benzyl)-1H-indol-5-yl)-5-methyl-1H-pyrazole-3-carboxamide] | – | – | 381 | 1200
Cc1cc(C(N)=O)nn1-c1ccc2c(ccn2Cc2ccc(C3=C[C@H]4CN(C)C[C@H]4C3)cc2)c1 (racemic) [Example 25, (cis)-5-methyl-1-(1-(4-(2-methyl-1,2,3,3a,4,6a-hexahydrocyclopenta[c]pyrrol-5-yl)benzyl)-1H-indol-5-yl)-1H-pyrazole-3-carboxamide] | – | – | 215 | 1120
Cc1cc(C(N)=O)nn1-c1ccc2c(c1)c(C1=CCNCC1)cn2Cc1ccc(-c2ccc(S(C)(=O)=O)cc2)cc1 [Example 21, 5-methyl-1-(1-((4′-(methylsulfonyl)-[1,1′-biphenyl]-4-yl)methyl)-3-(1,2,3,6-tetrahydropyridin-4-yl)-1H-indol-5-yl)-1H-pyrazole-3-carboxamide] | – | – | 598 | 1650
Cc1nc(C(N)=O)nn1-c1ccc2c(ccn2Cc2ccc([C@@H]3C[C@@H]4CN(C)C[C@@H]4C3)cc2)c1 [Example 27, 5-methyl-1-(1-(4-((3aR,5r,6aS)-2-methyloctahydrocyclopenta[c]pyrrol-5-yl)benzyl)-1H-indol-5-yl)-1H-1,2,4-triazole-3-carboxamide] | – | – | 224 | 947
Cc1cc(C(N)=O)nn1-c1ccc2c(ccn2Cc2ccc(C3CCCN(C)CC3)cc2)c1 (single isomer, unassigned) [Example 29-2, 5-methyl-1-(1-(4-(1-methylazepan-4-yl)benzyl)-1H-indol-5-yl)-1H-pyrazole-3-carboxamide] | 818 | 2100 | – | –
Cc1cc(C(N)=O)nn1-c1ccc2c(ccn2Cc2ccc(-c3ccc4c(c3)CC(=O)N4)cc2)c1 [Example 1-31, 5-methyl-1-(1-(4-(2-oxoindolin-5-yl)benzyl)-1H-indol-5-yl)-1H-pyrazole-3-carboxamide] | – | – | 55 | 138
Cc1cc(C(N)=O)nn1-c1ccc2c(ccn2Cc2ccc(-c3ccc(CN4CCC[C@@H]4CO)cc3)cc2)c1 [Example 34-2, (R)-1-(1-((4′-((2-(hydroxymethyl)pyrrolidin-1-yl)methyl)-[1,1′-biphenyl]-4-yl)methyl)-1H-indol-5-yl)-5-methyl-1H-pyrazole-3-carboxamide] | – | – | 42 | 3
Cc1cc(C(N)=O)nn1-c1ccc2c(ccn2Cc2ccc(C3=CCNCC3)cc2)c1 [Example 3, 5-methyl-1-(1-(4-(1,2,3,6-tetrahydropyridin-4-yl)benzyl)-1H-indol-5-yl)-1H-pyrazole-3-carboxamide] | – | – | 476 | 1170
Cc1cc(C(N)=O)nn1-c1ccc2c(ccn2Cc2ccc([C@@]34C[C@@H]3CN(C)C4)cc2)c1 [Example 33, 5-methyl-1-(1-(4-((1R,5S)-3-methyl-3-azabicyclo[3.1.0]hexan-1-yl)benzyl)-1H-indol-5-yl)-1H-pyrazole-3-carboxamide] | – | – | 383 | 2810
Cc1cc(C(N)=O)nn1-c1ccc2c(ccn2Cc2ccc(C3CCN(C)CC3(C)C)cc2)c1 (single isomer, unassigned) [Example 16-2, 5-methyl-1-(1-(4-(1,3,3-trimethylpiperidin-4-yl)benzyl)-1H-indol-5-yl)-1H-pyrazole-3-carboxamide] | 161 | 1220 | – | –
Cc1cc(C(N)=O)nn1-c1ccc2c(ccn2Cc2ccc(-c3ccc4[nH]ncc4c3)cc2)c1 [Example 1-17, 1-(1-(4-(1H-indazol-5-yl)benzyl)-1H-indol-5-yl)-5-methyl-1H-pyrazole-3-carboxamide] | – | – | 88 | 199
Cc1cc(C(N)=O)nn1-c1ccc2c(ccn2Cc2ccc(-c3cnc(N)nc3)cc2)c1 [Example 1-29, 1-(1-(4-(2-aminopyrimidin-5-yl)benzyl)-1H-indol-5-yl)-5-methyl-1H-pyrazole-3-carboxamide] | – | – | 340 | 774
Cc1cc(C(N)=O)nn1-c1ccc2c(ccn2Cc2ccc(C3CCN(C)CC3)cc2)c1 [Example 2-5, 5-methyl-1-(1-(4-(1-methylpiperidin-4-yl)benzyl)-1H-indol-5-yl)-1H-pyrazole-3-carboxamide] | – | – | 281 | 760
Cc1cc(C(N)=O)nn1-c1ccc2c(ccn2Cc2ccc(-c3cnn(C)c3)cc2)c1 [Example 1-19, 5-methyl-1-(1-(4-(1-methyl-1H-pyrazol-4-yl)benzyl)-1H-indol-5-yl)-1H-pyrazole-3-carboxamide] | – | – | 140 | 500
COc1cc(-c2ccc(Cn3ccc4cc(-n5nc(C(N)=O)cc5C)ccc43)cc2)ccn1 [Example 1-24, 1-(1-(4-(2-methoxypyridin-4-yl)benzyl)-1H-indol-5-yl)-5-methyl-1H-pyrazole-3-carboxamide] | – | – | 123 | 349
Cc1cc(C(N)=O)nn1-c1ccc2c(c1)c(C1=CCOCC1)cn2Cc1ccc(-c2ccc(S(C)(=O)=O)cc2)cc1 [Example 19-1, 1-(3-(3,6-dihydro-2H-pyran-4-yl)-1-((4′-(methylsulfonyl)-[1,1′-biphenyl]-4-yl)methyl)-1H-indol-5-yl)-5-methyl-1H-pyrazole-3-carboxamide] | – | – | 52 | 81
Cc1cc(C(N)=O)nn1-c1ccc2c(c1)c(CCCO)cn2Cc1ccc(-c2ccc(S(C)(=O)=O)cc2)cc1 [Example 22, 1-(3-(3-hydroxypropyl)-1-((4′-(methylsulfonyl)-[1,1′-biphenyl]-4-yl)methyl)-1H-indol-5-yl)-5-methyl-1H-pyrazole-3-carboxamide] | – | – | 32 | 81
Cc1cc(C(N)=O)nn1-c1ccc2c(ccn2Cc2ccc(C3CCN(C)C3)cc2)c1 (racemic) [Example 2-1, rac-5-methyl-1-(1-(4-(1-methylpyrrolidin-3-yl)benzyl)-1H-indol-5-yl)-1H-pyrazole-3-carboxamide] | – | – | 733 | 2510
Cc1cc(C(N)=O)nn1-c1ccc2c(ccn2Cc2ccc([C@@H]3C[C@@H]4CN(C)C[C@@H]4C3)cc2)c1 [Example 26-1, 5-methyl-1-(1-(4-((3aR,5r,6aS)-2-methyloctahydrocyclopenta[c]pyrrol-5-yl)benzyl)-1H-indol-5-yl)-1H-pyrazole-3-carboxamide] | – | – | 95 | 314
Cc1cc(C(N)=O)nn1-c1ccc2c(ccn2Cc2ccc(C3=CCOCC3)cc2)c1 [Example 1-3, 1-(1-(4-(3,6-dihydro-2H-pyran-4-yl)benzyl)-1H-indol-5-yl)-5-methyl-1H-pyrazole-3-carboxamide] | – | – | 201 | > 10000
Cc1cc(C(N)=O)nn1-c1ccc2c(ccn2Cc2ccc(C#CCN(C)C)cc2)c1 [Example 12, 1-(1-(4-(3-(dimethylamino)prop-1-yn-1-yl)benzyl)-1H-indol-5-yl)-5-methyl-1H-pyrazole-3-carboxamide] | – | – | 402 | 1190
Cc1cc(C(N)=O)nn1-c1ccc2c(ccn2Cc2ccc(C3=CCN(S(C)(=O)=O)CC3)cc2)c1 [Example 4, 5-methyl-1-(1-(4-(1-(methylsulfonyl)-1,2,3,6-tetrahydropyridin-4-yl)benzyl)-1H-indol-5-yl)-1H-pyrazole-3-carboxamide] | – | – | 109 | 306
Cc1cc(C(N)=O)nn1-c1ccc2c(ccn2Cc2ccc(N3CCN(C)CC3)cc2)c1 [Example 11-2, 5-methyl-1-(1-(4-(4-methylpiperazin-1-yl)benzyl)-1H-indol-5-yl)-1H-pyrazole-3-carboxamide] | – | – | 341 | 1060
Cc1cc(C(N)=O)nn1-c1ccc2c(ccn2Cc2ccc(-c3ccc(S(=O)(=O)N4CCN(C)CC4)cc3)cc2)c1 [Example 1-11, 5-methyl-1-(1-((4′-((4-methylpiperazin-1-yl)sulfonyl)-[1,1′-biphenyl]-4-yl)methyl)-1H-indol-5-yl)-1H-pyrazole-3-carboxamide] | – | – | 69 | 388
Cc1cc(C(N)=O)nn1-c1ccc2c(ccn2Cc2ccc(-c3ccc4cn[nH]c4c3)cc2)c1 [Example 1-14, 1-(1-(4-(1H-indazol-6-yl)benzyl)-1H-indol-5-yl)-5-methyl-1H-pyrazole-3-carboxamide] | – | – | 284 | 1050
